Results on 15 compounds are retold here after patent US8420630B2 (Boehringer Ingelheim Pharma GmbH & Co. KG, priority 2001, dated 2013).

Each structure is given as a SMILES string. pIC50: −log10 of the molar value. Some results are limits rather than exact numbers.

Tested on in the first data set: not given
Experiment: not given
Conditions: not given
Compound `O=C(NCCNc1nc(Nc2ccc(Cl)c(Cl)c2)ncc1C(F)(F)F)c1ccccc1` [Example 7, N-(2-[2-(3,4-dichloro-phenylamino)-5-trifluoromethyl-pyrimidin-4-ylamino]-ethyl)-benzamide] gave a melting point of 160 to 162 °C.
The compound `CC(=O)NCCNc1nc(Nc2cccc(NC(C)=O)c2)ncc1C(F)(F)F` [Example 10(000), N-(2-[2-(3-acetylamino-phenylamino)-5-trifluoromethyl-pyrimidin-4-ylamino]-ethyl)-acetamide] returned a melting point of 222 °C.
`CC(=O)NCCNc1nc(Nc2ccc(Cl)c(Cl)c2)ncc1[N+](=O)[O-]` [Example 1, 2-(3,4-dichlorophenylamino)-4-(2-acetylamino-ethylamino)-5-nitro-pyrimidine] returned a melting point of 200 to 201 °C.
The same measure, in the same setting: the figure for `CNC(=O)c1ccc(Nc2ncc(C(F)(F)F)c(NCCNC(C)=O)n2)cc1` [Example 8, 4-[4-(2-acetylamino-ethylamino)-5-trifluoromethyl-pyrimidin-2-ylamino]-N-methyl-benzamide] is 183 °C.
`CC(=O)NCCNc1nc(Nc2cccc(CN3CCCCC3)c2)ncc1C(F)(F)F` [Example 11, N-{2-[2-(3-piperidin-1-ylmethyl-phenylamino)-5-trifluoromethyl-pyrimidin-4-ylamino]-ethyl}-acetamide] registered a melting point of 93 to 94 °C.
Consider `CC(=O)NCCNc1nc(Nc2cccc(C(=O)O)c2)ncc1C(F)(F)F` [Example 9, 3-[4-(2-acetylamino-ethylamino)-5-trifluoromethyl-pyrimidin-2-ylamino]-benzoic acid], for which the melting point amounted to 282 °C.
Still for that read-out and setting: the figure for `CC(=O)NCCNc1nc(Nc2ccc(C(=O)O)cc2)ncc1[N+](=O)[O-].Cl` is 171 to 173 °C.
`CC(=O)NCCNc1nc(Nc2ccc(C(=O)O)cc2)ncc1C(C)C` [Example 6, 4-[4-(2-acetylamino-ethylamino)-5-isopropyl-pyrimidin-2-ylamino]-benzoic acid] registered a melting point of 275 to 278 °C.

The target of another data set is T1, CDK1/cyclinB1 (Homo sapiens, UniProt P06493).
T1 construct: made in house; host or cells: High Five insect cells (Trichoplusia ni), baculovirus coinfection
T1 sequence (P06493 whole entry): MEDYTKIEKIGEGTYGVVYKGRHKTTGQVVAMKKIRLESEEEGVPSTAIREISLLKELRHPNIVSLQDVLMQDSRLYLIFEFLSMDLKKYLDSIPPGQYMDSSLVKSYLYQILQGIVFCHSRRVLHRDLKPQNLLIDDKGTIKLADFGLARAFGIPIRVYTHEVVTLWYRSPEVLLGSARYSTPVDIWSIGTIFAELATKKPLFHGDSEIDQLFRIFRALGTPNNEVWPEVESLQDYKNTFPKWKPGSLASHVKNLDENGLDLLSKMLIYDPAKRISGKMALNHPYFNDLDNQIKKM
T1 sequence (P14635 whole entry partner): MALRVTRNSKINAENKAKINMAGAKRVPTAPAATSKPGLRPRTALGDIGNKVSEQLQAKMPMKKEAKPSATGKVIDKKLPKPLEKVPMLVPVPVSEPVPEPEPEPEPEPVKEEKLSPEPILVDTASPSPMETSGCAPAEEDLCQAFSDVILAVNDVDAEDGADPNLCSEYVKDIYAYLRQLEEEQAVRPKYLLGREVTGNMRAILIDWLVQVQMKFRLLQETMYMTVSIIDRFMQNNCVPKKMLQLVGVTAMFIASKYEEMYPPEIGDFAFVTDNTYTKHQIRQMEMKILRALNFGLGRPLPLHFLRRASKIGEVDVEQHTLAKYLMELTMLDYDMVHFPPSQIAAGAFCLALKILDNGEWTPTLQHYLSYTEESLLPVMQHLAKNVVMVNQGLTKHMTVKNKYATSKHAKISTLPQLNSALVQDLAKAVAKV
The data set can be described thus: Cyclin B1-CDK1 kinase inhibition test. It is filed as biochemical. The following applies: CDK1 tests (Example 13); recombinant cyclin B1/CDK1, substrate histone H1; read-out: CDK1/cyclinB1 IC50 value. The essentials: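 Baculovirus-expressed CDK1/cyclin B1 phosphorylated histone H1 with ATP mix containing 0.045 mM ATP plus ^33P-ATP for 30 min at 30 °C. Protein was precipitated with TCA and filter-bound radioactivity read by scintillation counting. Olomoucin at 30 and 300 μM final served as internal control.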
For the compound `CC(=O)NCCNc1nc(Nc2cccc(NC(C)=O)c2)ncc1C(F)(F)F` [Example 10(000), N-(2-[2-(3-acetylamino-phenylamino)-5-trifluoromethyl-pyrimidin-4-ylamino]-ethyl)-acetamide], the pIC50 is more than 7.00.
On the same count and under the same terms, the figure for `OCCCCCNc1nc(Nc2ccc(Cl)c(Cl)c2)ncc1C(F)(F)F` [Example 1(045), 2-(3,4-dichloro-phenylamino)-4-(5-hydroxy-1-pentylamino)-5-trifluoromethyl-pyrimidine] is more than 7.00.
Regarding `O=C1CCCN1CCCNc1nc(Nc2ccc3[nH]nnc3c2)ncc1C(F)(F)F` [Example 2(036), 1-{3-[2-(1H-Benzotriazol-5-ylamino)-5-trifluoromethyl-pyrimidin-4-ylamino]-propyl}-pyrrolidin-2-one], the pIC50 was more than 7.00.
On to `CC(=O)N(C)CC1CCN(c2nc(Nc3ccc(Cl)cc3)ncc2[N+](=O)[O-])CC1` [Example 1(052), 2-(4-chloro-phenylamino)-4-(4-(N-acetyl-N-methyl-aminomethyl)-piperidin-1-yl)-5-nitro-pyrimidine], for which the pIC50 is more than 7.00.
On the same count and under the same terms, in the case of `FC(F)(F)c1cnc(Nc2cccc(Br)c2)nc1N1CCc2[nH]cnc2C1` [Example 1(038), 2-(3-bromo-phenylamino)-4-(1,4,6,7-tetrahydro-imidazo[4,5-c]pyridin-5-yl)-5-trifluoromethyl-pyrimidine] it was more than 7.00; in that of `CC(=O)NCCNc1nc(Nc2ccc3[nH]cnc3c2)ncc1C(F)(F)F` [Example 2(043), N-{2-[2-(1H-Benzimidazol-5-ylamino)-5-trifluoromethyl-pyrimidin-4-ylamino]-ethyl}-acetamide], more than 7.00.
Take `FC(F)(F)c1cnc(Nc2ccc3ccccc3c2)nc1N1CCc2[nH]cnc2C1` [Example 1(152), 2-(2-naphthylamino)-4-(1,4,6,7-tetrahydro-imidazo[4,5-c]pyridin-5-yl)-5-trifluoromethyl-pyrimidine]: the pIC50 was more than 7.00.

The next data set relates to cell culture.
Experiment: not given
To be noted: Ongkeko et al., 1995, J. Cell Sci., 108, 2897; cited from earlier work.
For `Cn1cnc2c(NCc3ccccc3)nc(NCCO)nc21` [olomoucine], the “effect with cytotoxic substances in cell culture” value is on record as “synergistic effect”.
